Common to all, as to format: cell-based
Series [1] concerns AsPC-1 pancreatic cancer cells. Briefly: western blot of cell apoptosis marker (cleaved PARP) after antagomiR-1976 transfection. The conditions noted are these: AsPC-1, antagomiR-1976 transfection; FIG. 4B. The source says: (§1) FIGS. 4A and 4B are cell apoptosis charts of BxPC-3 and AsPC-1 pancreatic cancer cells with antagomiR-1976 transfection obtained from western blot analysis applied in the chemotherapy drug-sensitizing method in accordance with the preferred embodiment of the present invention. Referring now to FIG. 4A, by way of example, results of pancreatic cancer cell BxPC-3 applied in the chemotherapy drug-sensitizing method in accordance with the present invention are shown. Referring now to FIG. 4B, by way of example, results of pancreatic cancer cell AsPC-1 applied in the chemotherapy drug-sensitizing method in accordance with the present invention are shown.

Series [2] has as its system BxPC-3 pancreatic cancer cells. The description is as above. The conditions noted are these: BxPC-3, antagomiR-1976 transfection; FIG. 4A.
Text: as §1

Another series has as its system pancreatic cancer cells. The series can be described thus: qPCR analysis of miR-1976 expression after gemcitabine induction. Particulars: induction by gemcitabine; FIG. 1B. The source says: FIGS. 1A and 1B are microRNA expression charts released in extracellular vesicle and intracellular obtained from micro array analysis and qPCR analysis applied in the chemotherapy drug-sensitizing method in accordance with the preferred embodiment of the present invention.

For “5′-ACAGCAAGGAGGGCAGGAGG-3′ (listed as RNA, chemistry not given here) [antagomiR-1976]”, the “amount of pancreatic cancer cell apoptosis marker (cleaved PARP)” value in series [1] and in series [2] was “obviously increased” in each case.
As for `Nc1ccn([C@@H]2O[C@H](CO)[C@@H](O)C2(F)F)c(=O)n1` [gemcitabine], in the series with pancreatic cancer cells, the “amount of miR-1976 in pancreatic cancer cells” value is reported as “selectively increased”.

The record behind these values is patent US11583547B2, “Chemotherapy drug-sensitizing method, agent composition and use thereof” (FU JEN CATHOLIC UNIVERSITY, priority 2020, dated 2023).
